Assay results published in ChEMBL document CHEMBL1201862, “PubChem BioAssay data set” (2004).
Calls of active or inactive are those of the source.

Legend:
[1] = HGIII-sPLA2 enzyme inhibition potency – biochemical, QFRET, IC50, dose response (AID 743457);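 further: green fluorescence rise as the enzyme cleaves BODIPY PC-A2 in liposomes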
Albumin = Albumin (Bos taurus, UniProt P02769); assay: Counterscreen for inhibitors of T-cell receptor (TCR)-CD3 interaction: Fluorescence-based biochemical high throughput dose response assay to identify inhibitors of T-cell receptor (TCR)-CD3 interaction using a TAMRA-labeled BSA probe.; type: functional
[2] = target: T1, Trace amine-associated receptor 1 (Homo sapiens, UniProt Q96RJ0); assay: Counterscreen for agonists of the human trace amine associated receptor 1 (hTAAR1): Fluorescence-based cell-based high throughput dose response assay to identify hTAAR1 agonist that also desensitize TAAR1 receptor response.; type: functional
T1 sequence (Q96RJ0 whole entry): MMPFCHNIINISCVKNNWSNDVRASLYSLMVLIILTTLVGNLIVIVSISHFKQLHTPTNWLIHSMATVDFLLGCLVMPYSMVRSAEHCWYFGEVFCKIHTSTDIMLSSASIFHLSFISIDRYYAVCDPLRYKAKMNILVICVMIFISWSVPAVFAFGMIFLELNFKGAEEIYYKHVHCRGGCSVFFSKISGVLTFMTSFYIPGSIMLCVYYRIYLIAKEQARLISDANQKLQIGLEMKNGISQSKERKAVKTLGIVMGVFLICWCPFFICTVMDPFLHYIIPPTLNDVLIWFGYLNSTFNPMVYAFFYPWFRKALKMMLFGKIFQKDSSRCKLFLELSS

cells [3] = type: functional, cell-based
[4] = target: T1, Trace amine-associated receptor 1; assay: Fluorescence-based cell-based high throughput dose response assay to identify agonists of the human trace amine associated receptor 1 (TAAR1).; type: functional
cells [5] = type: functional, cell-based; remark: listed apart in the source
[6] = Trypanosoma cruzi growth suppression in host cells – NIH3T3 host cells, beta-gal luminescence, confirmation (AID 2044); type: functional, cell-based;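 further: intracellular parasites grown in NIH/3T3 mouse fibroblasts as host cells; luminescent beta-galactosidase reporter signal from transgenic T. cruzi replicating inside host cells; inhibitors lower the luminescence signal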
[7] = NIH3T3 cell viability loss – ATP luminescence, mouse fibroblasts, counter-screen, dose response (AID 2010); type: functional, cell-based;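 further: cells exposed to compound for about 90 hours before reading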
Streptococcus = assay: GAS UMAA2166 growth inhibition – luminescence, BacTiterGlo, counter-screen for streptokinase expression inhibitor project, dose response (AID 1915); type: functional, organism-based;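 further: potency for reduction of bacterial viability or growth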
Aminopeptidase N = target: T2, Aminopeptidase N (Plasmodium falciparum FcB1/Columbia, UniProt O96935); assay: malaria alanyl aminopeptidase activity blockers – biochemical, fluorogenic H-Leu-NHMec substrate, 1536-well (AID 1445); parameters: species or system Plasmodium falciparum 3D7, 3D7
T2 sequence (O96935 whole entry): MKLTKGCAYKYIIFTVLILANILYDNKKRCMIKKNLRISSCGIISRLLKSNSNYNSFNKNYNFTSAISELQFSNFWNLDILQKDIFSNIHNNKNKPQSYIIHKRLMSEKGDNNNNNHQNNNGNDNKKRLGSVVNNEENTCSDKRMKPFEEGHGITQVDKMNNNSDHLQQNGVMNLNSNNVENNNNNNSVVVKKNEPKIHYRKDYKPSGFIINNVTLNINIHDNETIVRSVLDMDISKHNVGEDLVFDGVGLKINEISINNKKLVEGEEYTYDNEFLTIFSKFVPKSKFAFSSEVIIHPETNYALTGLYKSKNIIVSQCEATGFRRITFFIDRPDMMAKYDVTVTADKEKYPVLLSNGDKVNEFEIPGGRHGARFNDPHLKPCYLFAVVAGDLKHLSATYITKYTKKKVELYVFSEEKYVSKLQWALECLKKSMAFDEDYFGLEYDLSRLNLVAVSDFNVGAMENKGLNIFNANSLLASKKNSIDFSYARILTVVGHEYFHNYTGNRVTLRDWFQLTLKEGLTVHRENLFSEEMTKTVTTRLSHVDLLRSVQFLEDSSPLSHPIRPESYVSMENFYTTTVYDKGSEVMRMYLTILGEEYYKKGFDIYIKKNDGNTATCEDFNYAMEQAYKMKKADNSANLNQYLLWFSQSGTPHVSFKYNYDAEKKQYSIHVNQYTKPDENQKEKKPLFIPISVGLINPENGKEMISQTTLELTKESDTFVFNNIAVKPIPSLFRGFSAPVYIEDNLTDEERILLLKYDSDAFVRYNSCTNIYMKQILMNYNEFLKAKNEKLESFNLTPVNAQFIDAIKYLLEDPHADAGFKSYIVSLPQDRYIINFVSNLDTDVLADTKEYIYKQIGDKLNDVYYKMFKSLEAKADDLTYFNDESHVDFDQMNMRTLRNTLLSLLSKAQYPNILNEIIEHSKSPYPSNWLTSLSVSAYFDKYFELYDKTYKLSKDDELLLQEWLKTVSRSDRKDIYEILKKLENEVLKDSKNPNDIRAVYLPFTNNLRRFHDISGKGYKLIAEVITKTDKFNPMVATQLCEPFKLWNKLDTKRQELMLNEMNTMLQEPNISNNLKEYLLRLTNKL

[8] = test system: Streptococcus sp. 'group A'; assay: Streptococcus pyogenes SK(-)GAS viability under kanamycin – luminescence, BacTiterGlo, confirmation, counter-screen for streptokinase expression inhibitor project, dose response (AID 1900); type: functional, organism-based
[9] = target: T3, Mannose-6-phosphate isomerase (Homo sapiens, UniProt P34949); assay: MPI inhibition at elevated mannose 6-phosphate – biochemical, fluorescence intensity, high mannose 6-phosphate, primary screen (AID 1220)
T3 sequence (P34949 whole entry): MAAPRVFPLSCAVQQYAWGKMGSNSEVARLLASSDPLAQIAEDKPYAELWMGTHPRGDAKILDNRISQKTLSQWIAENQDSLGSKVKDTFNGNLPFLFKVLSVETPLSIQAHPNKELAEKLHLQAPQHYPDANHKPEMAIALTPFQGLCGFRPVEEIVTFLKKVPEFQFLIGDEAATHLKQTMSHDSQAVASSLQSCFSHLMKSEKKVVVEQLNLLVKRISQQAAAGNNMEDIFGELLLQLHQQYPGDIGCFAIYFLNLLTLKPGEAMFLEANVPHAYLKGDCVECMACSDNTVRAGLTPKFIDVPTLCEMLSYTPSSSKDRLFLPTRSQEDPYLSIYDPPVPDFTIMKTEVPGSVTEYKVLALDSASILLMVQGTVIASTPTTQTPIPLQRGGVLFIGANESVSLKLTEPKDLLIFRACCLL

cells [10] = type: functional

Chain of Albumin (P02769 whole entry): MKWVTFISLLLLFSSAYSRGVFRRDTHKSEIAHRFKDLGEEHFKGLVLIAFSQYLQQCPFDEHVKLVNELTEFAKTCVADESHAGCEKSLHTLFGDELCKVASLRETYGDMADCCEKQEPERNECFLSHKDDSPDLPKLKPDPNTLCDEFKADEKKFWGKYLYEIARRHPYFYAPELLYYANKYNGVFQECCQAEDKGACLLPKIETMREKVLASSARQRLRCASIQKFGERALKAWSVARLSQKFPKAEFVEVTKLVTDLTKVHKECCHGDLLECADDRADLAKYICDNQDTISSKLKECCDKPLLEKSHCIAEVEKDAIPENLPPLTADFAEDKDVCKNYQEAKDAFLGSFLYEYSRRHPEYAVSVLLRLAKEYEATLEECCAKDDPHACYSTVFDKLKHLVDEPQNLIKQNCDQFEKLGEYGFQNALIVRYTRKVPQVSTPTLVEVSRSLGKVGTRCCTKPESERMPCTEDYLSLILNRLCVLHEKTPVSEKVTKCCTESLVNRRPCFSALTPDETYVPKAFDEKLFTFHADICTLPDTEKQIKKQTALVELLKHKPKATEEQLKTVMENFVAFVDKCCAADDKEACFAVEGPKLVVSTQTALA

## CCCCNC(=S)N/N=C/c1cccc(OCC)c1O
[1]
  IC50: > 122 µM (inactive)

## CC(C)c1cc(C(=O)NN=C(S)NCc2ccco2)c(O)c(C(C)C)c1
[1]
  IC50: 18.8 µM (inactive)

## O=C(CCNC(=O)c1ccc(Br)cc1)NNC(=O)c1ccccc1O
Albumin
  IC50: > 94.1 µM (inactive)

## Cc1ccc(N2CN(CCc3ccccc3)CN=C2S)cc1
[2]
  IC50: 7.74 µM (active)
Cells [3]
  EC50: > 29.9 µM (inactive)
[4]
  EC50: 1.16 µM (active)
Cells [5]
  IC50: > 29.9 µM (inactive)

## C=CCNC(S)=NNc1nc(O)c2c(n1)-c1ccccc1CC21CCCCC1
[1]
  IC50: 73.1 µM (inactive)

## COc1ccc(NC(=O)NNC(=O)c2ccc3ccccc3c2O)cc1OC
Albumin
  IC50: > 94.1 µM (inactive)
[1]
  IC50: > 122 µM (inactive)

## Cc1c(Cl)cccc1Nc1nc(NCCO)c2ccccc2n1
[2]
  IC50: 6.83 µM (active)
[6]
  EC50: 1.2 µM (active)
Cells [3]
  EC50: > 29.9 µM (inactive)
[7]
  EC50: > 60 µM (not active)
[4]
  EC50: 2.94 µM (active)
Cells [5]
  IC50: > 29.9 µM (inactive)

## Cn1ccc2c(N3CCCCCCC3)cc3c(c21)C1CCC3O1 (stereo unspecified)
[1]
  IC50: > 122 µM (inactive)

## O=C(CP(=O)(c1ccccc1)c1ccccc1)N/N=C/c1cc(Br)cc(Br)c1O
Streptococcus
  EC50: 2.32 µM (active)
Albumin
  IC50: > 94.2 µM (inactive)
Aminopeptidase N
  IC50: 12.4 µM (active)
[8]
  EC50: 0.8 µM (active)

## CC1CCCN(CCC(=O)c2ccc(Br)cc2)C1 (stereo unspecified)
[2]
  IC50: 20.1 µM (inactive)
Cells [3]
  EC50: > 29.9 µM (inactive)
[9]
  IC50: > 50 µM (not active)
Cells [10]
  IC50: 15.2 µM (active)
[4]
  EC50: 1.67 µM (active)
Cells [5]
  IC50: > 29.9 µM (inactive)

## COc1ccc(-c2cc(C3CCN(CC(O)C(F)(F)F)CC3)[nH]n2)cc1 (stereo unspecified)
[2]
  IC50: 7.6 µM (active)
Cells [3]
  EC50: > 29.9 µM (inactive)
[4]
  EC50: 3.52 µM (active)
Cells [5]
  IC50: > 29.9 µM (inactive)
